# According to US11332459B2 (TEIJIN PHARMA LIMITED, priority 2017, dated 2022):
# Molecular target: T1, human TRPC6 (Homo sapiens, UniProt Q9Y210)
# T1 construct: expressed in transfected cells
# T1 sequence (Q9Y210 1-931): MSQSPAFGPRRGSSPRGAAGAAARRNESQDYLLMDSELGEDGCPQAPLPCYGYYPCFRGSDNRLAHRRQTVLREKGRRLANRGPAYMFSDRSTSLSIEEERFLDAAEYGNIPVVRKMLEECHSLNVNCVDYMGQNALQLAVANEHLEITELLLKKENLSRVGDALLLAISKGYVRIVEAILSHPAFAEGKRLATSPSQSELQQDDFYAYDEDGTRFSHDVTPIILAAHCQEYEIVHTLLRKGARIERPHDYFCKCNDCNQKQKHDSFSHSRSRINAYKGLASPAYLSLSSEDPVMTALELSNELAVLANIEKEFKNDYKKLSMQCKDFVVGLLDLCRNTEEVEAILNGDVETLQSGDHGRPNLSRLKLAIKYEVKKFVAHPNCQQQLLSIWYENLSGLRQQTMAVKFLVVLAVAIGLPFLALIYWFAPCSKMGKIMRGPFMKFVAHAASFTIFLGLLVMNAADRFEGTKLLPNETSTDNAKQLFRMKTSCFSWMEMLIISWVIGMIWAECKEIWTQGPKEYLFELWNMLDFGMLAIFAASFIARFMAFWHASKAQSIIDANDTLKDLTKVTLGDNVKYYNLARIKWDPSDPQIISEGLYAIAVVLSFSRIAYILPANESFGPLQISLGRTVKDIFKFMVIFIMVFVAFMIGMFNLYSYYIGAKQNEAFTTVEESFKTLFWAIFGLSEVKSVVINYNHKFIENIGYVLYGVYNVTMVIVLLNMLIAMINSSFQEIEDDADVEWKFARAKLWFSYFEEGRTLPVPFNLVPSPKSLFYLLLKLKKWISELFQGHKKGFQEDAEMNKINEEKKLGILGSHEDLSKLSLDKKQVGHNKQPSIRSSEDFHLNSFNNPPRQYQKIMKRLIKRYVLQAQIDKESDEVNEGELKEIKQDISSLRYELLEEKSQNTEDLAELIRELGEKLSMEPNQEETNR
# Assay: TRPC6 calcium flux assay (FLIPR, OAG-stimulated calcium influx)
# Assay type: cell-based
# Conditions: HEK293 cells stably transfected with human TRPC6, read-out: hTRPC6 Potency
# Procedure, shortened: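 IC50 derived by plotting background-corrected peak fluorescence (180 s window, normalized to OAG-triggered signal vs buffer) against dose. Stable human TRPC6 HEK293 line was dye-loaded, exposed to compound 25 min, then challenged with 50 uM final OAG in 2 mM Ca2+ HEPES buffer pH 7.2, 0.5% DMSO.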
row,SMILES,IC50
1,"N[C@@H]1CN(c2nc3cc(F)c(F)cc3n2Cc2ccc(Cl)c(Cl)c2)CC[C@H]1F [Example 359, (3R,4R)-1-(1-(3,4-dichlorobenzyl)-5,6-difluoro-1H-benzimidazol-2-yl)-4-fluoro-3-piperidinamine]",0.238 µM
2,"N[C@@H]1CN(c2nc3cc(F)c(F)cc3n2Cc2ccc(Cl)c(F)c2)CC[C@H]1F [Example 360, (3R,4R)-1-(1-(4-chloro-3-fluorobenzyl)-5,6-difluoro-1H-benzimidazol-2-yl)-4-fluoro-3-piperidinamine]",0.0429 µM
3,"N[C@@H]1CN(c2nc3cc(F)c(F)cc3n2Cc2ccc(C(F)(F)F)cc2)CC[C@H]1F [Example 361, (3R,4R)-1-(5,6-difluoro-1-(4-(trifluoromethyl)benzyl)-1H-benzimidazol-2-yl)-4-fluoro-3-piperidinamine]",0.0668 µM
4,"N[C@@H]1CN(c2nc3cc(F)c(F)cc3n2Cc2ccc(OC(F)(F)F)cc2)CC[C@H]1F [Example 362, (3R,4R)-1-(5,6-difluoro-1-(4-(trifluoromethoxy)benzyl)-1H-benzimidazol-2-yl)-4-fluoro-3-piperidinamine]",0.256 µM
5,"N[C@@H]1CN(c2nc3cc(F)c(F)cc3n2Cc2ccc(C(F)F)cc2)CC[C@H]1F [Example 363, (3R,4R)-1-(1-(4-(difluoromethyl)benzyl)-5,6-difluoro-1H-benzimidazol-2-yl)-4-fluoro-3-piperidinamine]",0.0313 µM
6,"N[C@@H]1CN(c2nc3cc(F)c(F)cc3n2Cc2cccc(OC(F)(F)F)c2)CC[C@H]1F [Example 364, (3R,4R)-1-(5,6-difluoro-1-(3-(trifluoromethoxy)benzyl)-1H-benzimidazol-2-yl)-4-fluoro-3-piperidinamine]",1.02 µM
7,"N[C@@H]1CN(c2nc3cc(F)c(F)cc3n2Cc2cccc(C(F)(F)F)c2)CC[C@H]1F [Example 365, (3R,4R)-1-(5,6-difluoro-1-(3-(trifluoromethyl)benzyl)-1H-benzimidazol-2-yl)-4-fluoro-3-piperidinamine]",2.96 µM
8,"N#Cc1cccc(Cn2c(N3CC[C@@H](F)[C@H](N)C3)nc3cc(F)c(F)cc32)c1 [Example 366, 3-((2-((3R,4R)-3-amino-4-fluoro-1-piperidinyl)-5,6-difluoro-1H-benzimidazol-1-yl)methyl)benzonitrile]",0.232 µM
9,"N[C@@H]1CN(c2nc3cc(F)c(F)cc3n2Cc2cccc(Cl)c2)CC[C@H]1F [Example 367, (3R,4R)-1-(1-(3-chlorobenzyl)-5,6-difluoro-1H-benzimidazol-2-yl)-4-fluoro-3-piperidinamine]",0.354 µM
10,"N[C@H]1CCCN(c2nc3ccccc3n2Cc2ccc(F)cc2)C1 [Example 368, (S)-1-(1-(4-fluorobenzyl)-1H-benzo[d]imidazol-2-yl)piperidin-3-amine]",0.0992 µM
11,"N[C@H]1CCCN(c2nc3ccccc3n2Cc2ccc(-c3ncon3)cc2)C1 [Example 369, (S)-1-(1-(4-(1,2,4-oxadiazol-3-yl)benzyl)-1H-benzo[d]imidazol-2-yl)piperidin-3-amine]",0.00865 µM
12,"CS(=O)(=O)c1ccc(Cn2c(N3CCC[C@@H](N)C3)nc3ccccc32)cc1 [Example 370, (R)-1-(1-(4-(methylsulfonyl)benzyl)-1H-benzo[d]imidazol-2-yl)piperidin-3-amine]",> 50 µM
13,"N[C@@H]1CCCN(c2nc3ccccc3n2Cc2ccc(-n3cncn3)cc2)C1 [Example 371, (R)-1-(1-(4-(1H-1,2,4-triazol-1-yl)benzyl)-1H-benzo[d]imidazol-2-yl)piperidin-3-amine]",6.83 µM
14,"N#Cc1ccccc1Cn1c(N2CCC[C@@H](N)C2)nc2ccccc21 [Example 372, (R)-2-((2-(3-aminopiperidin-1-yl)-1H-benzo[d]imidazol-1-yl)methyl)benzonitrile]",14.1 µM
15,"N[C@@H]1CCCN(c2nc3ccccc3n2Cc2c(Cl)cccc2Cl)C1 [Example 373, (R)-1-(1-(2,6-dichlorobenzyl)-1H-benzo[d]imidazol-2-yl)piperidin-3-amine]",5.85 µM
16,"N[C@@H]1CCCN(c2nc3ccccc3n2Cc2ccccc2Cl)C1 [Example 374, (R)-1-(1-(2-chlorobenzyl)-1H-benzo[d]imidazol-2-yl)piperidin-3-amine]",3.41 µM
17,"N[C@@H]1CCCN(c2nc3ccccc3n2Cc2ccc(C(F)(F)F)cc2)C1 [Example 375, (R)-1-(1-(4-(trifluoromethyl)benzyl)-1H-benzo[d]imidazol-2-yl)piperidin-3-amine]",2.77 µM
18,"N[C@@H]1CCCN(c2nc3ccccc3n2Cc2ccc(OC(F)(F)F)cc2)C1 [Example 376, (R)-1-(1-(4-(trifluoromethoxy)benzyl)-1H-benzo[d]imidazol-2-yl)piperidin-3-amine]",3.05 µM
19,"N[C@@H]1CCCN(c2nc3ccccc3n2Cc2ccc(Cl)cc2)C1 [Example 377, (R)-1-(1-(4-chlorobenzyl)-1H-benzo[d]imidazol-2-yl)piperidin-3-amine]",1.65 µM
20,"N[C@@H]1CCCN(c2nc3ccccc3n2Cc2cccc(Cl)c2)C1 [Example 378, (R)-1-(1-(3-chlorobenzyl)-1H-benzo[d]imidazol-2-yl)piperidin-3-amine]",3.08 µM

# The remaining lines, values ahead:
row,IC50,SMILES
1,4.44 µM,"CC(F)(F)c1ccc(Cn2c(N3CCC[C@@H](N)C3)nc3ccccc32)cc1 [Example 379, (R)-1-(1-(4-(1,1-difluoroethyl)benzyl)-1H-benzo[d]imidazol-2-yl)piperidin-3-amine]"
2,17 µM,"CC(C)(C#N)c1ccc(Cn2c(N3CCC[C@@H](N)C3)nc3ccccc32)cc1 [Example 380, (R)-2-(4-((2-(3-aminopiperidin-1-yl)-1H-benzo[d]imidazol-1-yl)methyl)phenyl)-2-methylpropanenitrile]"
3,5.68 µM,"N[C@@H]1CCCN(c2nc3ccccc3n2Cc2ccc(C(F)F)cc2)C1 [Example 381, (R)-1-(1-(4-(difluoromethyl)benzyl)-1H-benzo[d]imidazol-2-yl)piperidin-3-amine]"
4,> 50 µM,"CNC(=O)c1ccc(Cn2c(N3CCC[C@@H](N)C3)nc3ccccc32)cc1 [Example 382, (R)-4-((2-(3-aminopiperidin-1-yl)-1H-benzo[d]imidazol-1-yl)methyl)-N-methylbenzamide]"
5,0.319 µM,"N#Cc1ccc(Cn2c(N3CCC[C@@H](N)C3)nc3ccccc32)c(F)c1 [Example 383, (R)-4-((2-(3-aminopiperidin-1-yl)-1H-benzo[d]imidazol-1-yl)methyl)-3-fluorobenzonitrile]"
6,16 µM,"N#CCOc1ccc(Cn2c(N3CCC[C@@H](N)C3)nc3ccccc32)cc1 [Example 384, (R)-2-(4-((2-(3-aminopiperidin-1-yl)-1H-benzo[d]imidazol-1-yl)methyl)phenoxy) acetonitrile]"
7,> 50 µM,"CN(C)S(=O)(=O)c1ccc(Cn2c(N3CCC[C@@H](N)C3)nc3ccccc32)cc1 [Example 385, (R)-4-((2-(3-aminopiperidin-1-yl)-1H-benzo[d]imidazol-1-yl)methyl)-N,N-dimethylbenzenesulfon-amide]"
8,4.26 µM,"Cc1ccc(Cn2c(N3CCC[C@@H](N)C3)nc3ccccc32)cc1 [Example 386, (R)-1-(1-(4-methylbenzyl)-1H-benzo[d]imidazol-2-yl)piperidin-3-amine]"
9,5.36 µM,"N[C@@H]1CCCN(c2nc3ccccc3n2Cc2ccc(F)cc2)C1 [Example 387, (R)-1-(1-(4-fluorobenzyl)-1H-benzo[d]imidazol-2-yl)piperidin-3-amine]"
10,4.58 µM,"N[C@@H]1CCCN(c2nc3ccccc3n2Cc2ccc(F)cc2F)C1 [Example 389, (R)-1-(1-(2,4-difluorobenzyl)-1H-benzo[d]imidazol-2-yl)piperidin-3-amine]"
11,3.57 µM,"N[C@@H]1CCCN(c2nc3ccccc3n2Cc2ccc(F)c(F)c2)C1 [Example 390, (R)-1-(1-(3,4-difluorobenzyl)-1H-benzo[d]imidazol-2-yl)piperidin-3-amine]"
12,1.82 µM,"N[C@@H]1CCCN(c2nc3ccccc3n2Cc2ccc(Cl)c(F)c2)C1 [Example 391, (R)-1-(1-(4-chloro-3-fluorobenzyl)-1H-benzo[d]imidazol-2-yl)piperidin-3-amine]"
13,2.24 µM,"N[C@@H]1CCCN(c2nc3ccccc3n2Cc2cc(-c3cccc(Cl)c3)no2)C1 [Example 392, (R)-1-(1-((3-(3-chlorophenyl)isoxazol-5-yl)methyl)-1H-benzo[d]imidazol-2-yl)piperidin-3-amine]"
14,5.05 µM,"COc1ccc(Cn2c(N3CCC[C@@H](N)C3)nc3ccccc32)cc1Cl [Example 393, (R)-1-(1-(3-chloro-4-methoxybenzyl)-1H-benzo[d]imidazol-2-yl)piperidin-3-amine]"
